Source: ChEMBL document CHEMBL3217581, “Synthesis and selective inhibition of human monoamine oxidases of a large scaffold of (4,5-substituted-thiazol-2-yl)hydrazones” (Medchemcomm, 2010)

What was measured:
[1] = target: T1, Amine oxidase [flavin-containing] A (Homo sapiens, UniProt P21397); assay: Inhibition of human MAO-A expressed in baculovirus infected BTI-TN-5B1-4 insect cells using p-tyramine as substrate assessed as hydrogen peroxide production by fluorimetric method
T1 sequence (P21397 whole entry): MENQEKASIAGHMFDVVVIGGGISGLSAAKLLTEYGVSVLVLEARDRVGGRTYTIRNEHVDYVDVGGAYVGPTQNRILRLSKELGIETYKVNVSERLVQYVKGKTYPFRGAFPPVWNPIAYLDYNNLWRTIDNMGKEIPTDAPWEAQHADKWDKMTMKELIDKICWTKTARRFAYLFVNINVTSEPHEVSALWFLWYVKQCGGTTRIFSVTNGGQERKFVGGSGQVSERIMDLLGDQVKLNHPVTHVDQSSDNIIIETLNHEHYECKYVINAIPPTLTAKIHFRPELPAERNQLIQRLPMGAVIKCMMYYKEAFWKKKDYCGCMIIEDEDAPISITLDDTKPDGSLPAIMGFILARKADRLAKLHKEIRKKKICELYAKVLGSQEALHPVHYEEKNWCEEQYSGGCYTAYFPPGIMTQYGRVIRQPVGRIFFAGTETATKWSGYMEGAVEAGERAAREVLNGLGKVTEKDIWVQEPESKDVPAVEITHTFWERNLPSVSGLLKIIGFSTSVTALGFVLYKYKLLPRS

Homo sapiens = organism: Homo sapiens; assay: Selectivity index, ratio of IC50 for human MAO-B to IC50 for human MAO-A
[2] = target: T2, Amine oxidase [flavin-containing] B (Homo sapiens, UniProt P27338); assay: Inhibition of human MAO-B expressed in baculovirus infected BTI-TN-5B1-4 insect cells using p-tyramine as substrate assessed as hydrogen peroxide production at 100 uM by fluorimetric method; details: BTI-TN-5B1-4, human
T2 sequence (P27338 whole entry): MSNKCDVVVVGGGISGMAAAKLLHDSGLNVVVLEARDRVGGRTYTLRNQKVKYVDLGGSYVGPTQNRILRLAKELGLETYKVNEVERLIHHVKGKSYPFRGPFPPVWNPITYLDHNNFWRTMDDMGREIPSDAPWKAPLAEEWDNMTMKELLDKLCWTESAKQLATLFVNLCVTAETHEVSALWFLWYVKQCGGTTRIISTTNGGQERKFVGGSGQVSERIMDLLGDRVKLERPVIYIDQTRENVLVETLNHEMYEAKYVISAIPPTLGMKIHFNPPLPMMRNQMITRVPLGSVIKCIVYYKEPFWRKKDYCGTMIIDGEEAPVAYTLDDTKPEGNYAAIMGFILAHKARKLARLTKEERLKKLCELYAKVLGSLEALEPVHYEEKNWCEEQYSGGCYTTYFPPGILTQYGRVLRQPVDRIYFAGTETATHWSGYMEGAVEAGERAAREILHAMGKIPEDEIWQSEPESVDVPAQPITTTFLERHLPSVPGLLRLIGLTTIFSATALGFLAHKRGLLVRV

[3] = target: T2, Amine oxidase [flavin-containing] B; assay: biochemical; format: cell-based, BTI-TN-5B1-4
Description: Inhibition of human MAO-B expressed in baculovirus infected BTI-TN-5B1-4 insect cells using p-tyramine as substrate assessed as hydrogen peroxide production by fluorimetric method

[4] = target: T1, Amine oxidase [flavin-containing] A; assay: Inhibition of human MAO-A expressed in baculovirus infected BTI-TN-5B1-4 insect cells using p-tyramine as substrate assessed as hydrogen peroxide production at 100 uM by fluorimetric method; details: BTI-TN-5B1-4, human
[5] = target: T2, Amine oxidase [flavin-containing] B; assay: Inhibition of human MAO-B expressed in baculovirus infected BTI-TN-5B1-4 insect cells using p-tyramine as substrate assessed as hydrogen peroxide production at 1 mM by fluorimetric method; details: bti-tn-5b1-4, 1000 µM

Structure (SMILES) | IC50 [1] [nM] | Ratio IC50 (Homo sapiens) | inhibition at 100 µM [2] [%] | IC50 [3] [µM] | inhibition at 100 µM [4] [%] | IC50 ([1]; bti-tn-5b1-4) [nM] | IC50 ([3]; bti-tn-5b1-4) [µM] | inhibition (INH) [5]
C/C(=N\Nc1nc(-c2ccc3ccccc3c2)cs1)C1CCCCC1 | 6950 | > 14.3 | 40 | – | – | – | – | –
CCCCCC/C(C)=N\Nc1nc(-c2ccccc2)c(C)s1 | 3910 | 1.04 | – | 3.75 | – | – | – | –
CC/C(C)=N\Nc1nc(-c2ccccc2)c(C)s1 | 1550 | 1 | – | 1.53 | – | – | – | –
Cc1sc(N/N=C/c2cccs2)nc1-c1ccccc1 | 3380 | 0.9 | – | 3.05 | – | – | – | –
CC1CCC/C1=N\Nc1nc(-c2ccc3ccccc3c2)cs1 (stereo unspecified) | 2600 | 1.11 | – | 2.88 | – | – | – | –
C=CCC/C(C)=N\Nc1nc(-c2ccc3ccccc3c2)cs1 | 1370 | 2.86 | – | 3.94 | – | – | – | –
C(=N\Nc1nc(-c2ccc3ccccc3c2)cs1)/c1cccnc1 | 2570 | 1.85 | – | 4.76 | – | – | – | –
C/C(=N\Nc1nc(-c2ccc3ccccc3c2)cs1)c1ccco1 | 1770 | 1.3 | – | 2.29 | – | – | – | –
CCC(CC)=NNc1nc(-c2ccccc2)c(C)s1 | 1650 | 1.49 | – | 2.45 | – | – | – | –
CCC/C(C)=N\Nc1nc(-c2ccc3ccccc3c2)cs1 | 1810 | 1.72 | – | 3.11 | – | – | – | –
C/C(=N\Nc1nc(-c2ccc3ccccc3c2)cs1)c1cccs1 | 3730 | 3.85 | – | 14.5 | – | – | – | –
CCCCC/C(C)=N\Nc1nc(-c2ccc3ccccc3c2)cs1 | 2450 | 6.67 | – | 16 | – | – | – | –
C(=N\Nc1nc(-c2ccc3ccccc3c2)cs1)/c1ccncc1 | 8670 | 0.83 | – | 7.48 | – | – | – | –
Cc1sc(N/N=C/c2cccnc2)nc1-c1ccccc1 | 1830 | 1.22 | – | 2.22 | – | – | – | –
C/C(=N\Nc1nc(-c2ccc3ccccc3c2)cs1)c1ccc2ccccc2c1 | – | – | 40 | – | 40 | – | – | –
CC1CC/C(=N\Nc2nc(-c3ccc4ccccc4c3)cs2)C1 (stereo unspecified) | 1910 | 1.82 | – | 3.49 | – | – | – | –
CC/C(C)=N\Nc1nc(-c2ccc3ccccc3c2)cs1 | 1740 | 1.52 | – | 2.65 | – | – | – | –
C/C(=N\Nc1nc(-c2ccccc2)c(C)s1)c1nccs1 | 6520 | 0.043 | – | 0.28 | – | – | – | –
C/C(=N\Nc1nc(-c2ccccc2)c(C)s1)c1ccco1 | 1680 | 1.25 | – | 2.1 | – | – | – | –
C/C(=N\Nc1nc(-c2ccccc2)c(C)s1)c1ccc2ccccc2c1 | – | – | 40 | – | 40 | – | – | –
C/C(=N\Nc1nc(-c2ccccc2)c(C)s1)c1cccs1 | 2670 | 0.9 | – | 2.34 | – | – | – | –
CCCCCC/C(C)=N\Nc1nc(-c2ccc3ccccc3c2)cs1 | 15800 | > 6.25 | 40 | – | – | – | – | –
CC(C)=NNc1nc(-c2ccccc2)c(C)s1 | 2550 | 2.08 | – | 5.28 | – | – | – | –
Cc1sc(NN=C2CCC(C)CC2)nc1-c1ccccc1 (stereo unspecified) | – | 0.66 | – | – | – | 3900 | 2.52 | –
O=C(NCCN1CCOCC1)c1ccc(Cl)cc1 [MOCLOBEMIDE] | – | – | – | – | – | – | – | Not Active
CCC(CC)=NNc1nc(-c2ccc3ccccc3c2)cs1 | 1860 | 1.25 | – | 2.32 | – | – | – | –
C(=N\Nc1nc(-c2ccc3ccccc3c2)cs1)/c1c[nH]c2ccccc12 | 2340 | 2.56 | – | 5.99 | – | – | – | –
C(=N\Nc1nc(-c2ccc3ccccc3c2)cs1)/c1cccs1 | 2710 | 1.72 | – | 4.63 | – | – | – | –
C/C(CC(C)C)=N/Nc1nc(-c2ccccc2)c(C)s1 | 2400 | 1.16 | – | 2.78 | – | – | – | –
C/C(=N\Nc1nc(-c2ccc3ccccc3c2)cs1)c1ccccc1 | 2000 | 3.13 | – | 6.23 | – | – | – | –
